Results: patent US9540647B2, “Methods and compositions for the treatment of cancer” (University of South Alabama, priority 2010, dated 2017)

Assays:
c-jun and c-fos mRNA = c-jun and c-fos mRNA expression in A2780-CP70 cells (semi-quantitative PCR); assay type: cell-based, human; details: 70 μM cyclopamine
c-jun = c-jun and c-fos protein expression and c-jun phosphorylation in A2780-CP70 cells (Western blot); assay type: cell-based, human; details: cyclopamine
Method: c-jun protein expression was assessed in cisplatin-treated A2780-CP70 cells using Western blot analysis.
Protein expression of c-fos and phosphorylation of c-jun in cyclopamine-treated A2780-CP70 cells was assessed using Western blot analysis. Protein levels for c-jun, c-fos, phosphorylated c-jun (Ser 63), phosphorylated c-jun (Ser 73), and phosphorylated c-jun (Thr 91, Thr 93) were tested in cytosolic, nuclear, and whole cell fractions at 0 hr, 6 hr, 24 hr, 48 hr, and 72 hr. Internal controls for cytosolic and nuclear fractions included α-tubulin and histone deacetylase 3.
Phosphorylation of c-jun in A2780-CP70 cells transfected with anti-GLI1 shRNA construct was assessed using Western blot analysis. Protein levels for c-jun, phosphorylated c-jun (Ser 63), phosphorylated c-jun (Ser 73), and phosphorylated c-jun (Thr 91, Thr 93) were examined at 0 hr, 6 hr, 24 hr, 48 hr, and 72 hr.

[1] = test system: OPN, MMP9, and Cathepsin K (CTSK); test: OPN, MMP9 and Cathepsin K expression in osteoclasts (qRT-PCR); assay type: cell-based, murine; details: osteoclasts with breast cancer conditioned medium; relative to DM
Method: Quantitative RT-PCR (qRT-PCR)—cDNA was generated using High Capacity Reverse Transcriptase Kit (Applied Biosystems, Foster City, Calif.). Real time PCR was performed in two cycles using a BioRad iQ5 Real-Time Detection system (Bio-Rad, Hercules, Calif.): the first cycle of 95° C. for 10 mins followed by 40 repeats of the second cycle comprising 95° C. for 15 sec followed by 60° C. for 1 min. All reactions were done in triplicate. Transcript levels were normalized to GAPDH levels (dCT) which was used to calculate changes in gene expression (2-ddCT). […] Following the experimental regime as described herein (for Osteoclast differentiation/activity) RNA was isolated using Trizol (Invitrogen) and assessed as described herein. The details of the primers used were as follows: OPN (Spp1; Mm00436767_m1), Matrixmetalloprotease 9 (MMP9; Mm00600163_m1), Cathepsin K (Ctsk; Mm00484036_m1), SHH (Hs00179843_m1), GLI1 (Hs01110766_m1), OPN (Hs00959010_m1), hGAPDH (Hs99999905_m1) and GAPDH (Mm99999915_g1).

OPN [2] = test: OPN expression in osteoblastic cells treated with cyclopamine (qRT-PCR, immunoblot); assay type: cell-based, human
Method: Quantitative RT-PCR (qRT-PCR)—cDNA was generated using High Capacity Reverse Transcriptase Kit (Applied Biosystems, Foster City, Calif.). Real time PCR was performed using a BioRad iQ5 Real-Time Detection system (Bio-Rad, Hercules, Calif.). All reactions were done in triplicate. OPN transcript levels were normalized to GAPDH levels (dCT) which was used to calculate changes in OPN expression (2-ddCT). […] The primers used included Sppl (OPN) (Mm 00436767_m1); Bglap (osteocalcin) (Mm 01741771_g1); IBSP (Mm 00492555_m1); PTHrP (Mm 00433057_m1); RANKL (Mm 00441906_m1); GAPDH (Mm 99999915_g1).

OPN [3] = test: OPN expression in RAW264.7 pre-osteoclasts in response to SHH; assay type: cell-based, murine; details: RAW264.7 cells
Method: Western Blotting Analysis—Whole cell lysates were collected in NP-40 buffer (150 mM NaCl, 50 mM Tris, 1% NP-40). Total protein (30 μg) was resolved by SDS-PAGE gel and transferred to PVDF membranes. Membranes were immunoblotted overnight at 4° C. with antibodies to either SHH (Santacruz, Calif., USA) or IHH (Santacruz). Equal loading was confirmed with anti-β-tubulin (Cell Signaling, Danvers, Mass.). To assess OPN expression upon SHH treatment, […] were grown in 6-well plates in the presence of SHH. After 24 hours the cells were lysed in NP-40 buffer and 30 μg of each experimental group assessed by immunoblotting. To assess for the expression of OPN, MMP9 and CTSK, at the end of Day 6 of differentiation, all the different experimental groups were kept in serum free medium for 24 hrs and both, the conditioned media and whole cell lysates were collected and immunoblotted using antibodies to either anti-mouse OPN (Millipore, Bedford, Mass.), or CTSK (SantaCruz Biotech). Equal loading was confirmed with anti-β-actin (Sigma) antibody. Secreted MMP9 (Santa Cruz Biotech) was assessed by loading equal quantity of protein from the serum-free conditioned medium. Corresponding HRP conjugated secondary antibodies were used for detection; blots were developed with SuperSignal enhanced chemiluminescence substrate (Pierce, Rockford, Ill.) and imaged using a Fuji LAS3000 imager. Detection and quantification of proteins was done using Fuji LAS 3000 apparatus and Multigauge V3.1 software (Fujifilm, Valhalla, N.Y.). Band intensities were measured in arbitrary Units (AU). […]
Luciferase Assay—Cells were co-transfected with the OPN promoter construct, pGL3-OPNB and pSV-β-galactosidase (Promega) (Das, S., et al. (2009) J Biol Chem 284, 22888-22897). […] Readings were normalized to β-galactosidase. […]
Quantitative RT-PCR (qRT-PCR)—cDNA was generated using High Capacity Reverse Transcriptase Kit (Applied Biosystems, Foster City, Calif.). […] Following the experimental regime as described herein (for Osteoclast differentiation/activity) RNA was isolated using Trizol (Invitrogen) and assessed as described herein. […]

OPN promoter = OPN promoter luciferase reporter assay in metastatic melanoma cell lines; assay type: cell-based, human
Source text: Empty pGL3 vector was used as control. […] Readings were normalized to total protein content. Each parameter was studied in triplicate and the experiment repeated at least 3 times. The data are represented as percent luciferase activity, which was derived as a percent of the relative light units in treated groups compared with the untreated groups.

CC1=C2C[C@H]3[C@@H](CC=C4C[C@@H](O)CC[C@@]43C)[C@@H]2CC[C@]12O[C@@H]1C[C@H](C)CN[C@H]1[C@H]2C [cyclopamine]
c-fos mRNA levels, peak over 0 hr (c-jun and c-fos mRNA): 27 fold
c-jun mRNA levels, increase (c-jun and c-fos mRNA; 6 hr): 3 fold
c-jun mRNA levels, increase over 0 hr (c-jun and c-fos mRNA; 24 hr (peak)): 13 fold
c-fos protein levels (c-jun): increased substantially at 6 hr
phosphorylated c-jun (Ser 73) (c-jun): gradual increase in levels at 24 hour, 48 hr, and 72 hr
phosphorylated c-jun (Thr 91, Thr 93) (c-jun): peak levels at 6 hr
expression of c-jun protein in nuclear fractions (c-jun; 0-72 hr): peaked at 48 hr
phosphorylated c-jun (Ser 63) (c-jun; 0-72 hr): no substantial expression was detected over 72 hr
c-jun protein levels (c-jun; cytosolic and nuclear fractions): increased in cytosolic and nuclear fractions at 48 hr and 72 hr
levels of CTSK [1]: significantly decreased
levels of MMP9 [1]: significantly decreased
levels of OPN [1]: significantly decreased
OPN mRNA levels (OPN [2]; hFOB cells, cyclopamine 5 μM, 10 μM, 20 μM): decreases OPN mRNA levels
expression of total OPN (OPN [2]; osteoblastic cells in presence of cyclopamine): decreased
secreted OPN (OPN [2]; osteoblastic cells, cyclopamine 5, 10 and 20 μM, dose and time dependent): decreased
expression of OPN transcript (OPN [2]; osteoblastic cells, cyclopamine (20 μg/ml), real time PCR): decreased the expression of OPN transcript

SHH: recombinant Sonic Hedgehog ligand (R & D Systems)
expression of OPN (immunoblot) (OPN [3]; 24 hours post SHH treatment): stimulates the expression of OPN
OPN promoter activity (OPN [3]; 24 hours post-SHH treatment): significantly (p<0.05) higher
levels of OPN mRNA (OPN [3]; recombinant SHH vs untreated): significantly greater levels of OPN mRNA
OPN promoter activity (OPN promoter; MCC012A cells, Hedgehog ligand treatment): significant increase
OPN promoter activity (OPN promoter; MCC012F cells, Hedgehog ligand treatment): significant increase
OPN promoter activity (OPN promoter; MDA-MB-435 cells, increasing concentrations of ligand vs untreated control): significantly (p<0.0001) higher
